The first assay addresses T1, human Nav1.1 (Homo sapiens, UniProt P35498).
T1 construct: host or cells: HEK293
The assay is described as follows: Amplification of Nav1.1-derived voltage-gated sodium current (Nav1.1 current), automated patch clamp (Test 1). The format is cell-based. The settings on record: Concentration for evaluation 1 μM; HEK293 cell line stably expressing human Nav1.1. Summed up:
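Compound-induced change in ramp-evoked sodium current peak and AUC was expressed as 100×post/pre ratio minus 100. Recordings used automated patch clamp in voltage-clamp mode on a stable human Nav1.1 HEK293 line, including only cells above 500 pA. Compounds were delivered in extracellular fluid containing 1% DMSO.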
Take `CN(c1cnc2cnn(CC(=O)Nc3ccc4cnccc4n3)c2n1)C1CC1` [Example 721]: the “Nav1.1 current amplification rate (%)” value was 17%. Still for that read-out and setting: the same measure for `Cc1nccn1-c1ccc(NC(=O)Cn2nc(C3=CCC(C)CC3)ccc2=O)cc1` (centres unmarked) [Example 361]: 101%; for `O=C(Cn1ncc2cnc(-c3ccc(Cl)s3)nc21)Nc1ccn2ncnc2c1` [Example 774]: 50%. Still for that read-out and setting: the same measure for `CC1CCN(c2ncc3cnn(CC(=O)Nc4ccn5ncnc5c4)c3n2)CC1(F)F` (centres unmarked) [Example 788]: 174%; for `CC1CC=C(c2ccc(=O)n(CC(=O)Nc3ccc4nccn4c3)n2)CC1` (centres unmarked) [Example 343]: 44%; for `CN(c1cnc2cnn(CC(=O)Nc3ccn4ccnc4c3)c2n1)C1CC1` [Example 702]: 60%. As for `Cc1cc(NC(=O)Cn2nc(C3=CCC(C)CC3)ccc2=O)cn2ncnc12` (centres unmarked) [Example 349], the “Nav1.1 current amplification rate (%)” value is 101%. On the same count and under the same terms, the value for `CC1CC=C(c2ccc(=O)n(CC(=O)N3CCc4c(CN5CC=CC5)cccc43)n2)CC1` (centres unmarked) [Example 287] was 73%; that for `CC(C1CC1)N(C)c1cnc2cnn(CC(=O)Nc3ccn4ncnc4c3)c2n1` (centres unmarked) [Example 633] was 15%; that for `CN1CCN(c2cccc3c2CCN3C(=O)Cn2ncc3ncc(N(C)C4CC4)nc32)CC1` [Example 716] was 45%. Same read-out and setting: the same measure for `Cc1nccn1-c1ccc(NC(=O)Cn2ncc3ncc(N(C)C4CCCC4)nc32)cc1` [Example 681]: 26%; for `CC1CC=C(c2ccc(=O)n(CC(=O)N3CCc4c(CNC5CCOC5)cccc43)n2)CC1` (centres unmarked) [Example 316]: 81%.

In the case of `CN(c1cnc2cnn(CC(=O)N3CCc4c(-c5ccncc5)cccc43)c2n1)C1CCC1` [Example 689], the “Nav1.1 current amplification rate (%)” value was 286%. Turning to `CC1CC=C(c2ccc(=O)n(CC(=O)N3CCc4c3ccnc4C3=CCN(C(=O)OC(C)(C)C)C3)n2)CC1` (centres unmarked) [Example 280], the “Nav1.1 current amplification rate (%)” value came out at 10%. In the case of `CC1CC=C(c2ccc(=O)n(CC(=O)N3CCc4cc(-c5cccnc5)ccc43)n2)CC1` (centres unmarked) [Example 298], the “Nav1.1 current amplification rate (%)” value is recorded as 51%. Still for that read-out and setting: the same measure for `CC1CC=C(c2ccc(=O)n(CC(=O)Nc3ccc4ncnn4c3)n2)CC1` (centres unmarked) [Example 339]: 127%.

Staying with this assay, now noted: Concentration for evaluation 3 μM; HEK293 cell line stably expressing human Nav1.1.
`CC1CC=C(c2ccc(=O)n(CC(=O)N3CCc4c(-c5ccn(C)n5)cccc43)n2)CC1` (centres unmarked) [Example 252]: the “Nav1.1 current amplification rate (%)” value is 254%.

With `COc1ccc(N2CCN(C(=O)Cn3nc(C4=CCC(C)CC4)ccc3=O)CC2)cn1` (centres unmarked) [Example 407], the “Nav1.1 current amplification rate (%)” value worked out at 113%. The same measure, in the same setting: the same measure for `CC1CC=C(c2ccc(=O)n(CC(=O)Nc3ccn4c(C5CC5)cnc4c3)n2)CC1` (centres unmarked) [Example 335]: 187%. The same measure, in the same setting: the value for `CC1CC=C(c2ccc(=O)n(CC(=O)Nc3cc4nccn4cn3)n2)CC1` (centres unmarked) [Example 328] was 58%; that for `CC1CC=C(c2ccc(=O)n(CC(=O)N3CCc4c(C5CCNC5)cccc43)n2)CC1` (centres unmarked) [Example 268] was 55%; that for `CCN1CC(c2cccc3c2CCN3C(=O)Cn2nc(C3=CCC(C)CC3)ccc2=O)C1` (centres unmarked) [Example 302] was 104%.

Still in this assay, the particulars now being: Concentration for evaluation 10 μM; HEK293 cell line stably expressing human Nav1.1.
As to `CN(c1cnc2cnn(CC(=O)Nc3cc4ccccc4nn3)c2n1)C1CC1` [Example 727], the “Nav1.1 current amplification rate (%)” value is recorded as 71%. For the molecule `CC1CC2(C1)CN(c1cnc3cnn(CC(=O)Nc4ccn5ncnc5c4)c3n1)C2` [Example 638], the “Nav1.1 current amplification rate (%)” value turned out to be 58%. Same read-out and setting: the value for `Cc1cc(C2=CCC(C)(C)CC2)nn(CC(=O)Nc2ccn3ccnc3c2)c1=O` [Example 460] was 221%; that for `CC1C=C(c2ccc(=O)n(CC(=O)Nc3ccc(C#N)cc3)n2)CC(C)O1` (centres unmarked) [Example 49] was 2%; that for `CC1CC=C(c2ccc(=O)n(CC(=O)N3CC=C(c4ccccc4)C3)n2)CC1` (centres unmarked) [Example 388] was 37%. On the same count and under the same terms, the value for `CN1CCN(c2cccc3c2CCN3C(=O)Cn2nc(C3=CCC(C)(C)CC3)ccc2=O)CC1` [Example 433] was 192%; that for `C[C@H]1CC[C@H](c2ccc(=O)n(CC(=O)Nc3ccc(C#N)cc3)n2)CC1` [Example 43] was 174%. With `COc1cc(C2=CCC(C(F)(F)F)CC2)nn(CC(=O)Nc2ccc3ocnc3c2)c1=O` (racemic) [Example 447], the “Nav1.1 current amplification rate (%)” value was 148%. The same measure, in the same setting: the same measure for `CC1CCN(c2ccc(=O)n(CC(=O)Nc3cncc(Cl)c3)n2)CC1` [Example 63]: 49%; for `CC1CC=C(c2ccc(=O)n(CC(=O)Nc3ccc4oc(C(F)F)nc4c3)n2)CC1` (centres unmarked) [Example 243]: 276%; for `COc1cc(=O)n(CC(=O)N2CCN(c3cncc(F)c3)CC2)nc1C1=CCC(C)(C)CC1` [Example 490]: 469%. As to `CC1CCN(c2ccc(=O)n(CC(=O)Nc3ccc(F)nc3)n2)CC1` [Example 58], the “Nav1.1 current amplification rate (%)” value was found to be 26%. Same read-out and setting: the value for `O=C(Cn1nc(C2=CCCC2)ccc1=O)N1CCc2c(N3CCOCC3)cccc21` [Example 481] was 128%; that for `CC1CC=C(c2ccc(=O)n(CC(=O)N3C[C@@H](C)N(c4cccnc4)[C@@H](C)C3)n2)CC1` (some centres unmarked) [Example 416] was 383%; that for `CC1CC=C(c2ccc(=O)n(CC(=O)NC3CCN(c4ccccc4)CC3)n2)CC1` (centres unmarked) [Example 368] was 18%.

Regarding `COc1cc(C2=CCC(C)CC2)nn(CC(=O)Nc2ccc3ocnc3c2)c1=O` (racemic) [Example 449], the “Nav1.1 current amplification rate (%)” value turned out to be 250%. As to `CN(c1cnc2cnn(CC(=O)N3CCc4c3cccc4C(F)(F)F)c2n1)C1CC1` [Example 731], the “Nav1.1 current amplification rate (%)” value was found to be 102%. Same read-out and setting: the same measure for `COc1cc(C2=CCC(C(F)(F)F)CC2)nn(CC(=O)Nc2ccn3ccnc3c2)c1=O` (centres unmarked) [Example 462]: 124%. Still for that read-out and setting: the value for `CC1(C)CC=C(c2ccc(=O)n(CC(=O)N3CCc4c(OC5COC5)cccc43)n2)CC1` [Example 436] was 226%. On the same count and under the same terms, the value for `CC1(C)CCCC(c2ccc(=O)n(CC(=O)Nc3ccc(C#N)cc3)n2)C1` (centres unmarked) [Example 46] was 85%; that for `CC1CCN(c2ccc(=O)n(CC(=O)Nc3cncc(C(F)(F)F)c3)n2)CC1` [Example 61] was 77%. For the molecule `COc1cc(C2=CCC(C)CC2)nn(CC(=O)N2CCN(c3cncc(F)c3)CC2)c1=O` (centres unmarked) [Example 488], the “Nav1.1 current amplification rate (%)” value is listed as 376%. Still for that read-out and setting: the same measure for `CC1CCN(c2ccc(=O)n(CC(=O)Nc3cncc(F)c3)n2)CC1` [Example 65]: 17%. Same read-out and setting: the same measure for `COc1cncc(C2=CCN(C(=O)Cn3nc(C4=CCC(C)CC4)ccc3=O)CC2)c1` (centres unmarked) [Example 403]: 270%; for `CC1CC=C(c2ccc(=O)n(CC(=O)Nc3ccnc(CO)c3)n2)CC1` (centres unmarked) [Example 370]: 35%; for `O=C(Cn1nc(C2=CCC(F)(F)CC2)ccc1=O)N1CCN(c2cncc(F)c2)CC1` [Example 489]: 29%. On the same count and under the same terms, the value for `CC1CC=C(c2ccc(=O)n(CC(=O)N3CCC(Oc4ccccc4)CC3)n2)CC1` (centres unmarked) [Example 390] was 50%.

Still in this assay, the particulars now being: Concentration for evaluation 50 μM; HEK293 cell line stably expressing human Nav1.1.
For `Cc1cc2ncnn2cc1NC(=O)Cn1nc(C2=CCC(C)CC2)ccc1=O` (centres unmarked) [Example 351], the “Nav1.1 current amplification rate (%)” value is on record as 98%.

On to `CC1CCC(F)(F)CN1c1ncc2cnn(CC(=O)Nc3ccn4ncnc4c3)c2n1` (centres unmarked) [Example 793], for which the “Nav1.1 current amplification rate (%)” value turned out to be 55%. As for `CC1CC=C(c2ccc(=O)n(CC(=O)Nc3cncc(CN(C)C)c3)n2)CC1` (centres unmarked) [Example 365], the “Nav1.1 current amplification rate (%)” value worked out at 32%.

In the case of `CC1CC=C(c2ccc(=O)n(CC(=O)N3CCN(C4CCCOC4)CC3)n2)CC1` (centres unmarked) [Example 408], the “Nav1.1 current amplification rate (%)” value is on record as 80%. Still for that read-out and setting: the value for `CC1CC=C(c2ccc(=O)n(CC(=O)N3CCc4nc(-c5cn[nH]c5)ccc43)n2)CC1` (centres unmarked) [Example 289] was 51%.

The same assay, now with this note: HEK293, Concentration for evaluation 1 μM; HEK293 cell line stably expressing human Nav1.1; read-out: Nav1.1 current amplification rate (%).
In the case of `Cc1ccc(-c2cnc3cnn(CC(=O)N4CCN(c5cccnc5)CC4)c3n2)c(F)c1` [Example 742], the activation at 1 µM amounted to 32%. Same read-out and setting: the same measure for `CN(CC1(C)CC1)c1cnc2cnn(CC(=O)Nc3cnc4cccnc4c3)c2n1` [Example 760]: 104%.

The assay is the same for the next values; noted with them: HEK293, Concentration for evaluation 10 μM; HEK293 cell line stably expressing human Nav1.1; read-out: Nav1.1 current amplification rate (%).
As to `Cc1cc(NC(=O)Cn2nc(C3=CCC(F)(F)CC3)ccc2=O)cc(C)n1` [Example 102], the activation at 10 µM came to 8%.

The same assay, now with this note: HEK293, concentration for evaluation 1 μM; HEK293 stably expressing human Nav1.1; read-out: Nav1.1 current amplification rate (%).
With `CN(c1ncc2cnn(CC(=O)Nc3cnc4cccnc4c3)c2n1)C1CC2(CC2)C1` [Example 842], the activation at 1 µM is 87%.

As to `O=C(Cn1ncc2ccc(-c3ccc(F)cc3F)nc21)Nc1ccc2ocnc2c1` [Example 884], the activation at 1 µM is 34%.

The assay is the same for the next values; noted with them: concentration for evaluation 1 μM; HEK293 stably expressing human Nav1.1.
Turning to `CN(CC1CCC1)c1ncc2cnn(CC(=O)Nc3ccn4ncnc4c3)c2n1` [Example 798], the “Nav1.1 current amplification rate (%)” value is reported as 193%.

As for `CN(c1ncc2cnn(CC(=O)Nc3ccc4ncnn4c3)c2n1)C1CCC1` [Example 817], the “Nav1.1 current amplification rate (%)” value was 21%. As for `CC1CC=C(c2ncc3cnn(CC(=O)Nc4ccc5cncnc5c4)c3n2)CC1` (centres unmarked) [Example 805], the “Nav1.1 current amplification rate (%)” value turned out to be 373%.
